Experimental data as given in ChEMBL document CHEMBL1201862, “PubChem BioAssay data set” (2004).
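Where inhibition never reached the appropriate level, the endpoint shown equals the highest concentration tested. Otherwise, values were interpolated linearly from a five-concentration, 48-hour dose response in 96-well plates. At the GI50, growth is halved.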 Calls of active or inactive are those of the source. No stated cut-off is given here; in the data, active = GI50 up to about 1.1 µM and inactive = higher.

Tests used:
Test in all cases: inhibition of tumour cell growth, NCI panel, 48 h
HT-29 = system: HT-29
HOP-18 = system: HOP-18
SNB-19 = system: SNB-19
M19-MEL = system: M19-MEL
XF498 = system: XF498
SF-295 = system: SF-295
SK-MEL-5 = system: SK-MEL-5
NCI-H522 = system: NCI-H522
SNB-75 = system: SNB-75
SW-620 = system: SW-620
DMS-114 = system: DMS-114
OVCAR-3 = system: OVCAR-3
DMS-273 = system: DMS-273
SK-OV-3 = system: SK-OV-3
KM12 = system: KM12
MOLT-4 = system: MOLT-4
NCI-H23 = system: NCI-H23
TK-10 = system: TK-10
Malme-3M = system: Malme-3M
A549 = system: A549
LXFL 529 = system: LXFL 529
HCC 2998 = system: HCC 2998
ACHN = system: ACHN
OVCAR-5 = system: OVCAR-5
SN12C = system: SN12C
LOX IMVI = system: LOX IMVI
COLO 205 = system: COLO 205
DLD-1 = system: DLD-1
M14 = system: M14
CAKI-1 = system: CAKI-1
KM-20L2 = system: KM-20L2
OVCAR-8 = system: OVCAR-8
HCT-116 = system: HCT-116
UACC-257 = system: UACC-257
U-251 = system: U-251
EKVX = system: EKVX
NCI-H226 = system: NCI-H226
HOP-62 = system: HOP-62
K562 = system: K562
OVCAR-4 = system: OVCAR-4
HCT-15 = system: HCT-15
SF-268 = system: SF-268
A498 = system: A498
UACC-62 = system: UACC-62
SNB-78 = system: SNB-78
RXF 393 = system: RXF 393
HL-60 = system: HL-60
SF-539 = system: SF-539
786-0 = system: 786-0
SK-MEL-28 = system: SK-MEL-28
CCRF-CEM = system: CCRF-CEM
IGROV-1 = system: IGROV-1
NCI-H460 = system: NCI-H460
UO-31 = system: UO-31
SR = system: SR
HOP-92 = system: HOP-92
SK-MEL-2 = system: SK-MEL-2
RPMI-8226 = system: RPMI-8226

Measured: GI50

CCOC(=O)c1nc2ccc(Cl)cc2c2c1CCO2
inactive: HT-29 > 100 µM | HOP-18 23.6 µM | SNB-19 > 100 µM | M19-MEL > 100 µM | XF498 72.8 µM | SF-295 > 100 µM | SK-MEL-5 55.6 µM | NCI-H522 34.7 µM | SNB-75 24 µM | SW-620 > 100 µM | DMS-114 64.3 µM | OVCAR-3 > 100 µM | DMS-273 > 100 µM | SK-OV-3 76 µM | KM12 > 100 µM | MOLT-4 53.5 µM | NCI-H23 > 100 µM | TK-10 76.7 µM | Malme-3M > 100 µM | A549 > 100 µM | LXFL 529 51.4 µM | HCC 2998 > 100 µM | ACHN 55 µM | OVCAR-5 > 100 µM | SN12C 82 µM | LOX IMVI 59.6 µM | COLO 205 > 100 µM | DLD-1 > 100 µM | M14 > 100 µM | CAKI-1 51.8 µM | KM-20L2 > 100 µM | OVCAR-8 > 100 µM | HCT-116 57 µM | UACC-257 > 100 µM | U-251 74.6 µM | EKVX > 100 µM | NCI-H226 > 100 µM | HOP-62 82.4 µM | K562 91.2 µM | OVCAR-4 70.1 µM | SF-268 90.8 µM | A498 31 µM | UACC-62 87.7 µM | SNB-78 > 100 µM | RXF 393 41.5 µM | HL-60 18.2 µM | SF-539 95.1 µM | 786-0 > 100 µM | SK-MEL-28 > 100 µM | CCRF-CEM 79.4 µM | IGROV-1 58.2 µM | NCI-H460 > 100 µM
99.1 µM: HCT-15

N#Cc1ccccc1C(Cl)(Cl)c1cnccn1
inactive: HT-29 57.4 µM | HOP-18 > 100 µM | SNB-19 56.5 µM | M19-MEL 54.1 µM | XF498 17.9 µM | SF-295 47 µM | SK-MEL-5 20.4 µM | NCI-H522 19.8 µM | UO-31 33.3 µM | SW-620 99.3 µM | DMS-114 22.4 µM | DMS-273 37.2 µM | SK-OV-3 61.1 µM | KM12 37.8 µM | MOLT-4 22.6 µM | NCI-H23 38.5 µM | TK-10 > 100 µM | A549 83.9 µM | LXFL 529 75.9 µM | HCC 2998 32.4 µM | ACHN 59.6 µM | OVCAR-5 > 100 µM | SN12C 74.8 µM | LOX IMVI 24.2 µM | COLO 205 46.9 µM | DLD-1 47.3 µM | CAKI-1 > 100 µM | OVCAR-8 26.3 µM | UACC-257 88.1 µM | SR 34 µM | U-251 34.8 µM | EKVX 40 µM | NCI-H226 36.6 µM | HOP-62 72.4 µM | K562 34.3 µM | OVCAR-4 > 100 µM | SF-268 52.5 µM | A498 92.7 µM | UACC-62 30.5 µM | SNB-78 46.3 µM | RXF 393 26.4 µM | HL-60 28.6 µM | SF-539 32.4 µM | HOP-92 25.4 µM | 786-0 14.6 µM | SK-MEL-28 51.2 µM | CCRF-CEM 20 µM | SK-MEL-2 67 µM | IGROV-1 44.1 µM | NCI-H460 47.4 µM

COc1cc(/C=C\c2cccnc2)cc(OC)c1OC
39.4 µM: HCT-15
inactive: HT-29 40.7 µM | HOP-18 > 100 µM | SNB-19 83.9 µM | M19-MEL 76.7 µM | XF498 48.9 µM | SF-295 36.6 µM | SK-MEL-5 18.9 µM | NCI-H522 25.3 µM | UO-31 27.9 µM | SNB-75 58.3 µM | SW-620 38.3 µM | DMS-114 46.8 µM | OVCAR-3 54 µM | DMS-273 33.1 µM | KM12 36.1 µM | MOLT-4 9.84 µM | NCI-H23 66.8 µM | TK-10 > 100 µM | Malme-3M 64.9 µM | A549 42.1 µM | LXFL 529 48.1 µM | ACHN > 100 µM | RPMI-8226 19.6 µM | OVCAR-5 > 100 µM | SN12C 42.6 µM | LOX IMVI 26.2 µM | COLO 205 29.3 µM | DLD-1 72.1 µM | M14 26.8 µM | CAKI-1 44.5 µM | KM-20L2 33.8 µM | OVCAR-8 63.2 µM | HCT-116 58.2 µM | UACC-257 68.4 µM | U-251 33 µM | EKVX 38.1 µM | NCI-H226 > 100 µM | HOP-62 37.8 µM | K562 24.5 µM | OVCAR-4 > 100 µM | SF-268 77.1 µM | UACC-62 46.3 µM | SNB-78 > 100 µM | RXF 393 22.6 µM | HL-60 18.9 µM | SF-539 36.6 µM | HOP-92 26 µM | 786-0 67.9 µM | SK-MEL-28 69.3 µM | CCRF-CEM 25.7 µM | IGROV-1 57.9 µM | NCI-H460 40.8 µM
